Data published in patent US20250034159A1, “INHIBITORS OF EPIDERMAL GROWTH FACTOR RECEPTOR” (ORIC Pharmaceuticals, Inc., priority 2021, published 2025).
Like-named read-outs stand apart in the source and are kept apart here.

How the values were obtained:
Ba/F3_EGFR WT cells = assay: Biological Activity Assay D: BaF3 cell proliferation assay, EGFR wild-type (BaF3 WT); type: cell-based; conditions: Ba/F3 EGFR, read-out: BaF3 WT IC50
[1] = biological target: recombinant human EGFR L858R/C797S double mutant protein (Homo sapiens (Human), UniProt P00533, C797S/L858R); assay: Biological Activity Assay B: biochemical assay against EGFR L858R/C797S protein (EGFR LR/CS)
Sequence of recombinant human EGFR L858R/C797S double mutant protein (P00533 25-1210 C797S/L858R): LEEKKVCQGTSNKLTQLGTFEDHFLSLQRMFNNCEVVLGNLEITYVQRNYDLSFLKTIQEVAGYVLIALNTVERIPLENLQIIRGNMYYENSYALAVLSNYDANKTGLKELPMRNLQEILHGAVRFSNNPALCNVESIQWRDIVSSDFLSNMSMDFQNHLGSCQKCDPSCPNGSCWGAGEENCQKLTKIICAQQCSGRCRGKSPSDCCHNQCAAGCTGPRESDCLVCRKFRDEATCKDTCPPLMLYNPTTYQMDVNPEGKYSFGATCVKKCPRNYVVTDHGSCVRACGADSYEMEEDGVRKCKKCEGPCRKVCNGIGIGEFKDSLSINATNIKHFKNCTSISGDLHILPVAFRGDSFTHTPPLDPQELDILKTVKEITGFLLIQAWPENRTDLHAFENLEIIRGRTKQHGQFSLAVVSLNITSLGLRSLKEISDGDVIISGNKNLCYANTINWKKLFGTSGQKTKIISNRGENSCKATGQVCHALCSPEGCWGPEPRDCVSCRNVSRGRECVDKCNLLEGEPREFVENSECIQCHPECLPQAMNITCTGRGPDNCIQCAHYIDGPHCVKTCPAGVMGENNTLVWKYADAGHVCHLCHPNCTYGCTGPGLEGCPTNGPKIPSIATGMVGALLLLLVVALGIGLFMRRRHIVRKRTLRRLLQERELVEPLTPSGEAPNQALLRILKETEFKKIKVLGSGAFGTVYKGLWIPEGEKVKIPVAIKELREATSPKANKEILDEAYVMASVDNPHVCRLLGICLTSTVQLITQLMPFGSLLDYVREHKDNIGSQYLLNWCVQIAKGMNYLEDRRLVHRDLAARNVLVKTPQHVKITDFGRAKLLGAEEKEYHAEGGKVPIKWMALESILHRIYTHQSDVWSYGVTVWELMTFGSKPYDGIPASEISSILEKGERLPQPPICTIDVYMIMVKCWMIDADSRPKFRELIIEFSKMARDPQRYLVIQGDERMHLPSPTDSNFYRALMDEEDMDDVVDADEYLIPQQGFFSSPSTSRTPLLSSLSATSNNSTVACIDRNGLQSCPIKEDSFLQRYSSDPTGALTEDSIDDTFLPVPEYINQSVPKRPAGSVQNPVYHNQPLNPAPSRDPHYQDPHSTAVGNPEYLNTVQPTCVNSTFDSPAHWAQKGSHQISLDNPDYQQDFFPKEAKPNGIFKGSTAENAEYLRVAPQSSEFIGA
Procedure, shortened: (§1)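 Compounds were tested as 16-point serial dilutions (final DMSO 2.5%) with a Phosphosens peptide sensor/ATP working solution (40 uM/4 mM). The signal was read kinetically over 90 cycles at 120 s intervals. IC50s came from 4-parameter fits of per-well slopes.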

BaF3_EGFR d19/CS cells = assay: Biological Activity Assay D: BaF3 cell proliferation assay, EGFR exon 19 deletion/C797S (BaF3 d19/CS); type: cell-based; conditions: Ba/F3 EGFR, read-out: BaF3 d19/CS IC50
[2] = biological target: recombinant human EGFR exon 19 deletion/C797S double mutant protein (Homo sapiens (Human), UniProt P00533, C797S/DEL746-750); assay: Biological Activity Assay C: biochemical assay against EGFR exon 19 deletion/C797S protein (EGFR d19/CS)
Sequence of recombinant human EGFR exon 19 deletion/C797S double mutant protein (P00533 other isoform, or with tags, fused parts or gaps C797S/del 1-668/del 746-750 limits assumed): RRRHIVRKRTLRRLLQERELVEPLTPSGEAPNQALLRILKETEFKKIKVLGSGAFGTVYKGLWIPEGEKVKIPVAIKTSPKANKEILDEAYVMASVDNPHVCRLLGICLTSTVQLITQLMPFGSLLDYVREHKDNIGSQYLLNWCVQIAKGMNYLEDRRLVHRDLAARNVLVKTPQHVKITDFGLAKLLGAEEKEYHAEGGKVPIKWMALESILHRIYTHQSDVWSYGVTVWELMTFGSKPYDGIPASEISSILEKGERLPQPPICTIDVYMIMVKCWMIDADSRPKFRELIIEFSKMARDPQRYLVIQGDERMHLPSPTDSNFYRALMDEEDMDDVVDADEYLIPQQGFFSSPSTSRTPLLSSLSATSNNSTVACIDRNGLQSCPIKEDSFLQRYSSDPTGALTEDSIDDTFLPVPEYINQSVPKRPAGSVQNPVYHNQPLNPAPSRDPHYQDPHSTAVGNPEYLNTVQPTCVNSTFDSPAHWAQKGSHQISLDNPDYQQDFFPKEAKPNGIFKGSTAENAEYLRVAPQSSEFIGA
Procedure, shortened: as §1

BaF3_EGFR LR/CS cells = assay: Biological Activity Assay D: BaF3 cell proliferation assay, EGFR L858R/C797S mutant (BaF3 LR/CS); type: cell-based; conditions: Ba/F3 EGFR, read-out: BaF3 LR/CS IC50
[3] = Ba/F3_EGFR WT cells, ~72 hours, CellTiter-Glo
[4] = BaF3_EGFR d19/CS cells, ~72 hours, CellTiter-Glo
[5] = BaF3_EGFR LR/CS cells, ~72 hours, CellTiter-Glo

| Structure (SMILES) | IC50 (Ba/F3_EGFR WT cells; [3]) | IC50 [1] | IC50 (BaF3_EGFR d19/CS cells; [4]) | IC50 [2] | IC50 (BaF3_EGFR LR/CS cells; [5]) | IC50 (Ba/F3_EGFR WT cells; 72 h) | IC50 (BaF3_EGFR d19/CS cells; 72 h) | IC50 (BaF3_EGFR LR/CS cells; 72 h) |
| --- | --- | --- | --- | --- | --- | --- | --- | --- |
| O=S1(=O)CC(Cn2ncc(-c3ncnc4oc(-c5ccccc5)cc34)c2-c2ccc(F)cc2)C1 [Example 112, 3-((5-(4-fluorophenyl)-4-(6-phenylfuro[2,3-d]pyrimidin-4-yl)-1H-pyrazol-1-yl)methyl)thietane 1,1-dioxide] | 7150 nM | 12.9 nM | 1150 nM | 12.5 nM | 741 nM | – | – | – |
| CS(=O)(=O)N1CC(n2cc(-c3ncnc4oc(-c5ccccc5)cc34)c(-c3ccc(F)cc3)n2)C1 [Example 114, 4-{3-(4-fluorophenyl)-1-[1-(methanesulfonyl)azetidin-3-yl]-1H-pyrazol-4-yl}-6-phenylfuro[2,3-d]pyrimidine] | 3320 nM | 1.62 nM | 137 nM | 0.55 nM | 132 nM | – | – | – |
| N#CCCCn1cc(-c2ncnc3oc(-c4ccccc4)cc23)c(-c2ccc(F)cc2)n1 [Example 116, 4-[3-(4-Fluorophenyl)-4-(6-phenylfuro[2,3-d]pyrimidin-4-yl)-1H-pyrazol-1-yl]butanenitrile] | – | 0.37 nM | – | 0.23 nM | – | 1510 nM | 47.6 nM | 22.9 nM |

Second part, led by results:

| IC50 (Ba/F3_EGFR WT cells; [3]) | IC50 [1] | IC50 (BaF3_EGFR d19/CS cells; [4]) | IC50 [2] | IC50 (BaF3_EGFR LR/CS cells; [5]) | Structure (SMILES) | IC50 (Ba/F3_EGFR WT cells; 72 h) | IC50 (BaF3_EGFR d19/CS cells; 72 h) | IC50 (BaF3_EGFR LR/CS cells; 72 h) |
| --- | --- | --- | --- | --- | --- | --- | --- | --- |
| 2190 nM | 1.27 nM | 315 nM | 1.49 nM | 256 nM | COC1(CCn2cc(-c3ncnc4oc(-c5ccccc5)cc34)c(-c3ccc(F)cc3)n2)COC1 [Example 113, 4-{3-(4-fluorophenyl)-1-[2-(3-methoxyoxetan-3-yl)ethyl]-1H-pyrazol-4-yl}-6-phenylfuro[2,3-d]pyrimidine] | – | – | – |
| 1270 nM | 0.47 nM | 93.7 nM | 0.27 nM | 103 nM | CNC(=O)CCn1cc(-c2ncnc3oc(-c4ccccc4)cc23)c(-c2ccc(F)cc2)n1 [Example 117, 3-[3-(4-fluorophenyl)-4-(6-phenylfuro[2,3-d]pyrimidin-4-yl)-1H-pyrazol-1-yl]-N-methylpropanamide] | – | – | – |
| 1020 nM | 0.56 nM | 50.5 nM | 0.25 nM | 38.3 nM | NC(=O)CCn1cc(-c2ncnc3oc(-c4ccccc4)cc23)c(-c2ccc(F)cc2)n1 [Example 118, 3-[3-(4-Fluorophenyl)-4-(6-phenylfuro[2,3-d]pyrimidin-4-yl)-1H-pyrazol-1-yl]propanamide] | – | – | – |
| 1340 nM | 0.7 nM | 50.9 nM | 0.34 nM | 35.5 nM | Fc1ccc(-c2nn(CC(F)F)cc2-c2ncnc3oc(-c4ccccc4)cc23)cc1 [Example 119, 4-[1-(2,2-Difluoroethyl)-3-(4-fluorophenyl)-1H-pyrazol-4-yl]-6-phenylfuro[2,3-d]pyrimidine] | – | – | – |
